# Measured values published in patent EP4806435A1, “DIHYDROCHROMENE-DERIVATIVE-CONTAINING THERAPEUTIC AGENT FOR CANCER” (Sumitomo Pharma Co., Ltd., priority 2023, dated 2025).
# How the values were obtained:
# [1] = tested on: B16 cells; assay: In vivo efficacy, combination with ipilimumab, B16 tumors; set-up: species or system C57BL/6J mice; conditions: Compound 1 3 mg/kg or 10 mg/kg once daily + ipilimumab 5 mg/kg once weekly; B16, subcutaneous
# Method: (§1) B16 cells (3 x 10^5) were subcutaneously implanted into C57BL/6J mice (n = 6) to establish tumors. On day 12 after implantation, administration was initiated with Compound 1 at 3 mg/kg or 10 mg/kg (once daily) and ipilimumab (an anti-CTLA-4 antibody) at 5 mg/kg (once weekly), and the efficacy of each monotherapy and the combination therapy was compared.
# (§2) Tumor volume was calculated using the following formula based on the short and long diameters of the tumor measured with digital calipers (Mitutoyo). [formula]
# (§3) The antitumor effect was evaluated by comparing the vehicle-treated control group with the test substance-treated group, and calculating T/C using the following formula. [formula]
# [2] = tested on: luciferase-expressing U-87 cells; assay: In vivo efficacy, combination with bevacizumab, orthotopic brain tumor (IVIS imaging); conditions: Compound 1 10 mg/kg twice daily (once daily from day 30) + bevacizumab 1 mg/kg twice weekly; brain tumors in immunodeficient mice
# Method: Luciferase-expressing U-87 cells, in which the luminescent enzyme luciferase was forcibly expressed, were established (obtained from ATCC (American Type Culture Collection)). 1 x 10^6 of these cells were implanted into the brains of immunodeficient mice to establish brain tumors. On day 18 after tumor cell implantation, administration was initiated with Compound 1 at 10 mg/kg (twice daily) and bevacizumab at 1 mg/kg (twice weekly). On day 30, the dosing frequency of Compound 1 was reduced to once daily. The efficacy of each monotherapy and the combination therapy was evaluated by quantifying orthotopic tumor progression using an IVIS Imaging System and comparing the results.
# [3] = tested on: MC38 cells; assay: In vivo efficacy, combination with ipilimumab, MC38 tumors; set-up: species or system C57BL/6J mice; conditions: Compound 1 3 mg/kg or 30 mg/kg once daily + ipilimumab 5 mg/kg once weekly; MC38, subcutaneous
# Method: as §1, with “MC38 cells” for “B16 cells”, “or 30” for “or 10”
# as §2, §3
# [4] = biological target: T1, EBP (Homo sapiens, UniProt Q15125); assay: Phase 1 clinical trial: pharmacodynamics, Lathosterol/Zymostenol (L/Z) ratio; format: in vivo; conditions: for decrease of mean L/Z ratio: Cycle 1 Day 2 (C1D2), as of April 2024
# T1 construct: endogenous in cells; host or cells: Patients with recurrent malignant glioma (WHO grade III or IV), in vivo; sterol ratio assessed in serum
# From the text: As of September 2023, pharmacodynamic assessments had clearly shown that Compound 1 inhibited the target, at least in serum. […] (Figure 5)
# [5] = tested on: B16 cells; assay: Efficacy in anti-PD-1 antibody-resistant in vivo model; set-up: species or system C57BL/6J mice; conditions: 10 mg/kg, once daily; B16 intradermal; versus nivolumab 5 mg/kg once weekly
# Method: B16 cells (5 x 10^5 cells; obtained from the JCRB Cell Bank) were intradermally implanted into C57BL/6J mice to establish tumors. On day 12 after implantation, administration of Compound 1 (10 mg/kg, once daily) or an anti-PD-1 antibody (nivolumab, 5 mg/kg, once weekly) was initiated, and the efficacy of each monotherapy group was compared with that of the control group.
# [6] = tested on: IDH1 R132H mutant U-87 cells; assay: Cytotoxicity assay, sphere culture with LDL supplementation (ATP); format: cell-based, human; conditions: 1 µM; 7 days sphere culture; LDL 5 µg/mL
# Method: U-87 cells were established with a tetracycline-inducible IDH1 R132H mutation expression system. The cells were cultured in the presence of doxycycline (1 µM), a tetracycline derivative, for 5 days to induce the IDH1 R132H mutation. After induction of the mutation, the cells were transferred to sphere culture medium (containing B-27 supplement, epidermal growth factor, cell proliferation factors, insulin, and low-density lipoprotein [LDL]), and cultured for 7 days under sphere-forming conditions after the addition of Compound 1 (1 µM). The LDL concentration in the medium was 5 µg/mL. After incubation, cellular ATP levels were quantified as an indicator of cell viability, and cell viability was calculated as the ratio relative to ATP levels under vehicle-only conditions. Using this approach, the cytotoxic effects of the present compound under LDL-supplemented conditions were compared between wild-type (doxycycline-) and mutant (doxycycline+) cells.
# T1 sequence (Q15125 whole entry): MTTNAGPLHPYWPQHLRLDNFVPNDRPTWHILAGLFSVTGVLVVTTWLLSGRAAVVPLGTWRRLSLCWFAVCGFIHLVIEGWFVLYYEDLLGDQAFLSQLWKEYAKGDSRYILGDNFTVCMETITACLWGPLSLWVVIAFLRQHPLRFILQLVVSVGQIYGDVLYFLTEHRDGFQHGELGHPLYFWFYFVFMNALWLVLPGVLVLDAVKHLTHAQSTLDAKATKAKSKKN
compound,measurement,setting,value
"CC1(C)Oc2cc(Cl)ccc2[C@@H]2OCC3(CCN(CCn4ccnc4)CC3)C[C@H]21 [Compound 1, (4'aR,10'bR)-8'-chloro-1-[2-(1H-imidazol-1-yl)ethyl]-5',5'-dimethyl-4'a,10'b-dihydro-2'H,4'H,5'H-spiro[piperidine-4,3'-pyrano[3,2-c][1]benzopyran] diphosphate]",antitumor effect in combination with ipilimumab,[1],remarkably pronounced antitumor effect
same,antitumor effect in combination with bevacizumab,[2],remarkably enhanced antitumor effect
same,antitumor effect in combination with ipilimumab,[3],remarkably pronounced antitumor effect
same,reduction in the L/Z ratio versus lower dose levels,[4]; 480 mg per day (240 mg BID),did not show a greater reduction in the L/Z ratio than those at the 180-360 mg QD dose levels
same,decrease of mean L/Z ratio,[4]; 20 mg QD,70%
same,decrease of mean L/Z ratio,[4]; 180 mg and 240 mg QD,95-97%
same,decrease of mean L/Z ratio,[4]; 360 mg QD,97.5%
same,decrease of mean L/Z ratio,[4]; 40-120 mg QD,85-91%
same,decrease of L/Z ratio,"[4]; Cycle 1 Day 8 (C1D8), 20-360 mg QD, maintained in subsequent cycles",approximately 100%
same,blood L/Z ratio across dose groups,[4]; from the 180 mg QD to 360 mg QD dose groups,remained at a similar level
same,decrease of the ratio of lathosterol and zymostenol (L/Z ratio),"[4]; serum, starting from 40 mg QD cohort, as of September 2023",over 80%
same,tumor growth inhibition as monotherapy,[5],statistically significant inhibition of tumor growth compared with the nivolumab-treated group
same,cytotoxicity in mutant versus wild-type cells,[6],statistically-significantly stronger cytotoxicity in IDH1 R132H mutant cells compared with wild-type cells
